Test results from patent US9676760B2, “Fused heterocyclic compounds as ion channel modulators” (Gilead Sciences, Inc., priority 2011, dated 2017).

How the values were obtained:
Type in all cases: cell-based
[1] = target: T1, hNav 1.1 sodium channel isoform (Homo sapiens, UniProt P35498); assay: hNav1.1 whole-cell voltage-clamp assay; conditions: % Inhibition at 1 uM; use-dependent block, 10 Hz; read-out: NAV1.1* UDB-10HZ
T1 construct: expressed in transfected cells; host or cells: HEK293, transient transfection (Qiagen Superfect)

[2] = target: T2, hNav 1.2 sodium channel isoform (Homo sapiens, UniProt Q99250); assay: hNav1.2 whole-cell voltage-clamp assay; conditions: use-dependent block, 10 Hz, read-out: NAV1.2* UDB-10HZ
T2 construct: expressed in transfected cells
T2 sequence (Q99250 whole entry, canonical isoform): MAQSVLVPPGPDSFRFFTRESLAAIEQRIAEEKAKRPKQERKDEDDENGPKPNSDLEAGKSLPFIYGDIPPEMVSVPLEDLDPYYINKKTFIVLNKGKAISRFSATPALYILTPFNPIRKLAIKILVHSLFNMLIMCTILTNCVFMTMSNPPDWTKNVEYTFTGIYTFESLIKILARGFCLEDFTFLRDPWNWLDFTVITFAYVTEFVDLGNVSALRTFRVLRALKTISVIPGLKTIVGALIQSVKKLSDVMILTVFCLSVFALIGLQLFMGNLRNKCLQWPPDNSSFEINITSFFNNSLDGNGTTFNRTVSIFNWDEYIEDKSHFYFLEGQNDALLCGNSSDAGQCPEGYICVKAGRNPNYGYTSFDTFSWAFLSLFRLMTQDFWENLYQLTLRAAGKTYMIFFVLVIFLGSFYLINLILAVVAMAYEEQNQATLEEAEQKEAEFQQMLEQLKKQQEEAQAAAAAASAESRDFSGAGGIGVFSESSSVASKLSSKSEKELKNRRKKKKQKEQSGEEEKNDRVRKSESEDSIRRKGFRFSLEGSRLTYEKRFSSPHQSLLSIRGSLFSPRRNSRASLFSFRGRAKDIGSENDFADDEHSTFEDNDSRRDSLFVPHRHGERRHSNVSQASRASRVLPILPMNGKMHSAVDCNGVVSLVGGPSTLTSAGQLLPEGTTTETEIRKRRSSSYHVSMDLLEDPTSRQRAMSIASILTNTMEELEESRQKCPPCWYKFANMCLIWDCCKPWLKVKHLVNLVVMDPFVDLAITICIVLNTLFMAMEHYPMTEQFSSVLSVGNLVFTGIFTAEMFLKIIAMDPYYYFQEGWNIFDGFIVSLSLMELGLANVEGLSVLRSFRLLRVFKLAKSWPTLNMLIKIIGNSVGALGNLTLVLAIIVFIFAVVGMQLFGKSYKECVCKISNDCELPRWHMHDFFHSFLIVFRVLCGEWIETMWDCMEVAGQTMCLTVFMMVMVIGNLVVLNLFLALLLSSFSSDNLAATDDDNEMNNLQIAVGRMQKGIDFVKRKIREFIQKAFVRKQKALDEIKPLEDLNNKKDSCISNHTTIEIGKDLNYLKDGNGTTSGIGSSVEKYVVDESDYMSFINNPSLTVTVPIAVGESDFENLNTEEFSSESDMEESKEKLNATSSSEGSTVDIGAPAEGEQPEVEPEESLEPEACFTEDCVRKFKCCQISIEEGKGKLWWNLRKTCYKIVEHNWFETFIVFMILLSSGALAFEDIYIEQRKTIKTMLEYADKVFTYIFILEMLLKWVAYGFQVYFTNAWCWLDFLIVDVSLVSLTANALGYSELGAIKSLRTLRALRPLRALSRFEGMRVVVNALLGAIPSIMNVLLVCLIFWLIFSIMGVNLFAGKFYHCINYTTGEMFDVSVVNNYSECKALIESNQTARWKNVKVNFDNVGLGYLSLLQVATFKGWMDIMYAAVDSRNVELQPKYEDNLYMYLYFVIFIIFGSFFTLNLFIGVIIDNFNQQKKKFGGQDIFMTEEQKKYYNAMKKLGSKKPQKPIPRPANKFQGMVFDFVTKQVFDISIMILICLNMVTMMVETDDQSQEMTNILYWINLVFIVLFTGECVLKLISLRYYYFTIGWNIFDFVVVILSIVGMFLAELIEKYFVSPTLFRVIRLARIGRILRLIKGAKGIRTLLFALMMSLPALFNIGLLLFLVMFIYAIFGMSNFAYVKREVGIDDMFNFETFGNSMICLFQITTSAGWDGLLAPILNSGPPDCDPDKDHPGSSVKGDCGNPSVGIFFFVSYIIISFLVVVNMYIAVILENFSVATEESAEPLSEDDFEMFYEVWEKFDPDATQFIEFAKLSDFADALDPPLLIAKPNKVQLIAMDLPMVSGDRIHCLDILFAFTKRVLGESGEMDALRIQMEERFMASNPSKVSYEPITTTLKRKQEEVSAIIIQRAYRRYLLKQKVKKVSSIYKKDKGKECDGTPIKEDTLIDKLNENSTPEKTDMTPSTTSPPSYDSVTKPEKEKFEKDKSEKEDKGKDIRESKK
Method: Wild-type (WT) cDNA stably transfected in Chinese hamster ovary (CHO) cells is used to record INa. Unless otherwise noted, all reagents are purchased from Sigma-Aldrich (St Louis, Mo., U.S.A.).
Whole-cell voltage-clamp recordings are used to measure the biophysical properties of WT. […] Cells are allowed to stabilize for 10 min after establishment of the whole-cell configuration before current is measured. Series resistance is compensated 90% to assure that the command potential is reached within microseconds with a voltage error<2 mV. Leak currents are subtracted by using an online P/4 procedure and all currents are low-pass Bessel filtered at 5 kHz and digitized at 50 kHz.
For clarity, representative ramp currents are low pass filtered off-line at 50 Hz. Specific voltage-clamp protocols assessing channel activation, fast inactivation and availability during repetitive stimulation are used. Results are presented as mean±SEM.
Tonic block of peak current is measured using a step to −10 mV (20 ms) from a holding potential of −120 mV (0.2 Hz). Use-dependent block of peak current is measured during pulse number 300 of a pulse train (−10 mV, 5 ms, 300 pulses, 10 Hz or 25 Hz) from a holding potential of −120 mV. Two sequential pulse train stimulations are averaged to obtain mean current traces for each recording condition, which are then used for offline subtraction and analysis.
For use-dependent studies, cells are stimulated with depolarizing pulse trains (−10 mV, 5 ms, 300 pulses, 10 and 25 Hz) from a holding potential of −120 mV. Currents are then normalized to the peak current recorded in response to the first pulse in each frequency train. For tonic block studies, peak current is evaluated in response to a 20 ms depolarization to −10 mV (0.2 Hz). […] Results are presented as mean±SEM.
A stock solution of 10 mM compound of Formula I is prepared in 0.1 M HCl or DMSO. […] The final DMSO concentration was kept at 0.1% in all solutions. Direct application of the perfusion solution to the clamped cell is achieved using the Perfusion Pencil system (Automate, Berkeley, Calif.). Direct cell perfusion is driven by gravity at a flow rate of 350 μL/min using a 250 micron tip. This system sequesters the clamped cell within a perfusion stream and enables complete solution exchange within 1 second. The clamped cell is perfused continuously starting immediately after establishing the whole-cell configuration. Control currents are measured during control solution perfusion.
Solutions are perfused for three minutes prior to current recordings to allow equilibrium (tonic) drug block. Tonic block of peak currents is measured from this steady-state condition. Three sequential current traces are averaged to obtain a mean current for each recording. The mean current traces are utilized for offline analysis. Use-dependent block of peak current is measured during pulse number 300 of the pulse train, (−10 mV, 5 ms, 300 pulses, 10 Hz) from a holding potential of −120 mV.

[3] = target: T3, wild-type human cardiac sodium channel, hNav1.5 (Homo sapiens, UniProt Q14524); assay: Late INa screening assay (QPatch whole cell patch clamp, HEK293)
T3 sequence (Q14524 whole entry): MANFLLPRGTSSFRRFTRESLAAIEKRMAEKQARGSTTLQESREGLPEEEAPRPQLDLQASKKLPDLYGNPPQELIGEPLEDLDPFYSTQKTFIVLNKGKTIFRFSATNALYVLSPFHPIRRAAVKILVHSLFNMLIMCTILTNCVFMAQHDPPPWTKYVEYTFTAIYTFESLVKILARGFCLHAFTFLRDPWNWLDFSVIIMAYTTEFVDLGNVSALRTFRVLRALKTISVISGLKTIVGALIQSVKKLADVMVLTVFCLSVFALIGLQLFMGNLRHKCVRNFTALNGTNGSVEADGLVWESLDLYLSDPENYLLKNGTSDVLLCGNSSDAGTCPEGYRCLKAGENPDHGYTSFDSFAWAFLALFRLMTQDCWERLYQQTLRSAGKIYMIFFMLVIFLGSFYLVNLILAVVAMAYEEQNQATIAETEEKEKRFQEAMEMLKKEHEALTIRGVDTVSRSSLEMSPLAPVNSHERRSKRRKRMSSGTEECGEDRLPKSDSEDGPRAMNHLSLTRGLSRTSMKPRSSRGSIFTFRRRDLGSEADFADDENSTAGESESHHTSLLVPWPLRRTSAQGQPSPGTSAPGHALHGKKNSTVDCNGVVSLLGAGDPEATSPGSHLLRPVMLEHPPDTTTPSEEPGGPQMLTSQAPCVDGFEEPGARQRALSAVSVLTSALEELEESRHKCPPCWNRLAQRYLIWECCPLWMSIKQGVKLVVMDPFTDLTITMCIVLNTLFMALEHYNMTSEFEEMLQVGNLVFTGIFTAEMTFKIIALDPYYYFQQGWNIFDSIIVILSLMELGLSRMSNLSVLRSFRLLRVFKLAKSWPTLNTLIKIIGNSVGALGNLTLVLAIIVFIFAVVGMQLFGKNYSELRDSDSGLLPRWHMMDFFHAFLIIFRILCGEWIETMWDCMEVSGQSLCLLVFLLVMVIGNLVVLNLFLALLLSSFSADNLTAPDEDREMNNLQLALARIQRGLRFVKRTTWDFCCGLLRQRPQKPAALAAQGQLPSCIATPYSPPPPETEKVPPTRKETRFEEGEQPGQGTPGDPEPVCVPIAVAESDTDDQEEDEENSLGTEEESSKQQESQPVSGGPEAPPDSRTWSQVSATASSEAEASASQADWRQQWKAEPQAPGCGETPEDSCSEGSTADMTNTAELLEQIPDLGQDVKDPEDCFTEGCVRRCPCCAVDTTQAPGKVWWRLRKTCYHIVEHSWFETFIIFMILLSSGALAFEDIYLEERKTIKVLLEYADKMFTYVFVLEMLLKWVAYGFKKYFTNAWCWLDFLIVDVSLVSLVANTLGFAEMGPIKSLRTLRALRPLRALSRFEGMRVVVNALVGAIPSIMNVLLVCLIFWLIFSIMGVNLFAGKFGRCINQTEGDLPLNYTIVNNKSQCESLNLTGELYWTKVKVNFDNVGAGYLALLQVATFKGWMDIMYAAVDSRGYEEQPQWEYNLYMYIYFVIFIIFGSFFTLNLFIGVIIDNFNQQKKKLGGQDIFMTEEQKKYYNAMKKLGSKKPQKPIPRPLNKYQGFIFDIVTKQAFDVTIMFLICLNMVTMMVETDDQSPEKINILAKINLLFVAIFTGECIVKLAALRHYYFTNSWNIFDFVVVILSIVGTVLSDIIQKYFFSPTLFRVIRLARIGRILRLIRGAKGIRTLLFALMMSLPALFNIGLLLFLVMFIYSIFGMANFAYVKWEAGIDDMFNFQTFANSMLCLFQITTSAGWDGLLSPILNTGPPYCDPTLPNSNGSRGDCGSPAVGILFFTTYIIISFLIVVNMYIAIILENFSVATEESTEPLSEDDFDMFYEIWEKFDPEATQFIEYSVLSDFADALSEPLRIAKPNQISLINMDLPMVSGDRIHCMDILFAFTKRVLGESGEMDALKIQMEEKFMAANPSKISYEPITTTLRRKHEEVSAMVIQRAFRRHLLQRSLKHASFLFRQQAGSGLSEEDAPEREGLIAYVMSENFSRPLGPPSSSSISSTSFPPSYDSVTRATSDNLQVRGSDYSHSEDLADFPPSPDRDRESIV
Summary of the method: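 HEK293 stably expressing hNav1.5 without beta subunits, recorded at 23-25° C. Late current was induced by 10 μM tefluthrin. Cells were depolarized from −120 mV to −20 mV for 250 ms at 0.1 Hz. Compounds were tested at 1 μM in extracellular solution, with baseline taken in 0Na-ECF; output is percent block of late INa.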

[4] = target: T3, wild-type human cardiac sodium channel, hNav1.5; assay: Peak INa screening assay (tonic and use-dependent block); conditions: compound at 1 μM
Method: The late sodium current (Late INa) and peak sodium current (Peak INa) assays are performed on an automated electrophysiology platform, QPatch 16× (Sophion Bioscience, Copenhagen, Denmark), which uses the whole cell patch clamp technique to measure currents through the cell membrane of up to 16 cells at a time. The assay uses an HEK293 (human embryonic kidney) cell line heterologously expressing the wild-type human cardiac sodium channel, hNav1.5, purchased from Millipore (Billerica, Mass.). No beta subunits were coexpressed with the Na channel alpha subunit. Cells are maintained with standard tissue culture procedures and stable channel expression is maintained with 400 μg/mL Geneticin in the culture medium. Cells isolated for use on QPatch are incubated for 5 minutes in Detachin 1×(Genlantis, San Diego, USA) at 37° C. to ensure that 80-90% of the cells are single and not part of a cell cluster. Experiments are carried out at 23-25° C.
For both the Late INa and Peak INa assays, series resistance compensation is set to 100% and series resistance and whole-cell compensation are performed automatically. Currents are digitized at 25 kHz and low-pass filtered at 12 kHz and 10 kHz for the late and peak INa assays, respectively. Currents through open sodium channels are automatically recorded and stored in the Sophion Bioscience Oracle database (Sophion Bioscience, Copenhagen, Denmark). Analysis is performed using QPatch Assay and database software and data are compiled in Excel.
Compound stocks are routinely made by the Gilead Sample Bank in plastic vials to 10 mM in dimethyl sulfoxide (DMSO). In some cases, when compounds are not soluble in DMSO, they are made in 100% ethanol. Stocks are sonicated as necessary. The extracellular solution for screening Late INa is composed of: 140 mM NaCl, 4 mM KCl, 1.8 mM CaCl2, 0.75 mM MgCl2 and 5 mM HEPES with pH adjusted to 7.4 using NaOH. The intracellular solution used to perfuse the inside of the cells for both the Late INa and Peak INa assays contains: 120 mM CsF, 20 mM CsCl, 5 mM EGTA, 5 mM HEPES and pH adjusted to 7.4 with CsOH. Compounds are diluted in extracellular solution to 1 μM in glass vials and then transferred to glass well plates before robotic addition to the cells. The 0 mM Na extracellular solution (0Na-ECF) used at the end of each experiment for the Late INa and Peak INa assays to measure baseline current contains: 140 mM N-methyl-D-glucamine; 4 mM KCl; 1.8 mM CaCl2; 0.75 mM MgCl2; 5 mM HEPES and pH was adjusted to 7.4 with HCl.
Compounds were also evaluated for their effect in several other assays, including their effect on Peak INa. […] Since the peak INa in the cells used herein can be very large, introducing artifacts in the recording, the concentration of Na^+ in the bath can be reduced to 20 mM and a nonpermeant cation added to compensate for the Na^+ that was removed to maintain the osmolarity and ionic strength of the solution (see solution details below).
A low stimulation frequency of 0.1 Hz was used to determine the effect of the test compound when the channel spent most of the time in the resting (closed) state and provides information about Tonic Block (TB). A higher stimulation frequency (3 Hz) was used to measure block of the channel when it spent more time in the activated and inactivated states and provided a measure of Use-Dependent Block (UDB). Use-dependent block refers to the accumulation of block with increased frequency of channel activation.

[5] = HEK293, % Inhibition at 1 uM, read-out: Late INa*
[6] = HEK293, percent block of late INa, compound at 1 μM, 10 μM Tefluthrin, read-out: Late INa 1 μM
[7] = tonic block of peak INa, 0.1 Hz, read-out: Peak TB 1 μM
[8] = use-dependent block of peak INa, 3 Hz, read-out: Peak UDB 1 μM

Row | Structure (SMILES) | inhibition at 1 µM [1] [%] | inhibition at 1 µM [2] [%] | inhibition at 1 µM [3, 5] [%] | inhibition at 1 µM [3, 6] [%] | inhibition at 1 µM [4, 7] [%] | inhibition at 1 µM [4, 8] [%]
1 | CC1CC=C(c2ccc3c(c2)C(=O)N(Cc2ncccn2)CCO3)CC1 (centres unmarked) [Compound V-5, 7-(4-methylcyclohex-1-enyl)-4-(pyrimidin-2-ylmethyl)-3,4-dihydrobenzo[f][1,4]oxazepin-5(2H)-one] | -18 | 3 | 49 | 49 | 5 | 5
2 | O=C1c2cc(-c3ccc(OC(F)(F)F)cc3)ccc2OCCN1Cc1ccc2ccccc2n1 [II-7, 4-(quinolin-2-ylmethyl)-7-(4-(trifluoromethoxy)phenyl)-3,4-dihydrobenzo[f][1,4]oxazepin-5(2H)-one] | 0 | 13 | 34 | 34 |  | 
3 | COc1cc(OC)nc(CN2CCOc3ccc(-c4ccc(OC(F)(F)F)cc4)cc3C2=O)n1 [II-42, 4-((4,6-dimethoxypyrimidin-2-yl)methyl)-7-(4-(trifluoromethoxy)phenyl)-3,4-dihydrobenzo[f][1,4]oxazepin-5(2H)-one] | 2 | 12 | 34 | 34 |  | 
4 | CN1CCOc2ccc(-c3ccc(OC(F)(F)F)cc3)cc2C1=O [II-46, 4-methyl-7-(4-(trifluoromethoxy)phenyl)-3,4-dihydrobenzo[f][1,4]oxazepin-5(2H)-one] | 2 | 16 | 25 | 25 |  | 
5 | COc1cccnc1CN1CCOc2ccc(-c3ccc(OC(F)(F)F)cc3)cc2C1=O [II-143, 4-((3-methoxypyridin-2-yl)methyl)-7-(4-(trifluoromethoxy)phenyl)-3,4-dihydrobenzo[f][1,4]oxazepin-5(2H)-one] | 29 | 44 | 65 | 65 |  | 
6 | O=C(Cc1ccccn1)N1CCOc2ccc(-c3ccc(C(F)(F)F)cc3)cc2C1 [III-29, 2-(pyridin-2-yl)-1-(7-(4-(trifluoromethyl)phenyl)-2,3-dihydrobenzo[f][1,4]oxazepin-4(5H)-yl)ethanone] |  |  |  | 48 | 11 | 14
7 | O=C1c2cc(-c3ccc(C(F)(F)F)s3)ccc2OCCN1Cc1ccccn1 [VI-31, 4-(pyridin-2-ylmethyl)-7-(5-(trifluoromethyl)thiophen-2-yl)-3,4-dihydrobenzo[f][1,4]oxazepin-5(2H)-one] |  |  |  | 61 | 50 | 42
8 | O=C1c2cc(-c3ccc(C4CC4)s3)ccc2OCCN1Cc1ccccn1 [VI-32, 7-(5-cyclopropylthiophen-2-yl)-4-(pyridin-2-ylmethyl)-3,4-dihydrobenzo[f][1,4]oxazepin-5(2H)-one] |  |  |  | 66 | 28 | 26
9 | O=C1c2nc(-c3ccc(OC(F)(F)F)cc3)ccc2OCCN1Cc1ccccc1 [XII-2, 4-benzyl-7-(4-(trifluoromethoxy)phenyl)-3,4-dihydropyrido[2,3-f][1,4]oxazepin-5(2H)-one] |  |  |  | 57 | 45 | 64
10 | O=C1c2nc(-c3ccc(C(F)(F)F)cc3)ccc2OCCN1Cc1ccccc1 [XII-3, 4-benzyl-7-(4-(trifluoromethyl)phenyl)-3,4-dihydropyrido[2,3-f][1,4]oxazepin-5(2H)-one] |  |  |  | 44 | 51 | 79
11 | Cc1ccnc(CN2CCOc3cnc(-c4ccc(OC(F)(F)F)cc4)cc3C2=O)n1 [XII-8, 4-((4-methylpyrimidin-2-yl)methyl)-7-(4-(trifluoromethoxy)phenyl)-3,4-dihydropyrido[4,3-f][1,4]oxazepin-5(2H)-one] | 11 | 11 | 36 | 36 |  | 
12 | COc1cccnc1CN1CCOc2cnc(-c3ccc(OC(F)(F)F)cc3)cc2C1=O [XII-10, 4-((3-methoxypyridin-2-yl)methyl)-7-(4-(trifluoromethoxy)phenyl)-3,4-dihydropyrido[4,3-f][1,4]oxazepin-5(2H)-one] |  |  |  | 45 | 13 | 20
13 | O=C1c2cc(-c3ccc(OC(F)(F)F)cc3)ncc2OCCN1Cc1ncccc1F [XII-11, 4-((3-fluoropyridin-2-yl)methyl)-7-(4-(trifluoromethoxy)phenyl)-3,4-dihydropyrido[4,3-f][1,4]oxazepin-5(2H)-one] |  |  |  | 55 | 25 | 24
14 | O=C1c2cc(Nc3ccc(OC(F)(F)F)cc3)ccc2OCCN1Cc1ccccn1 [XIII-4, 4-(pyridin-2-ylmethyl)-7-(4-(trifluoromethoxy)phenylamino)-3,4-dihydrobenzo[f][1,4]oxazepin-5(2H)-one] |  |  |  | 51 | 8 | 9
15 | O=C1c2cc(Nc3ccc(C(F)(F)F)cc3)ccc2OCCN1Cc1ccccn1 [XIII-6, 4-(pyridin-2-ylmethyl)-7-(4-(trifluoromethyl)phenylamino)-3,4-dihydrobenzo[f][1,4]oxazepin-5(2H)-one] |  |  |  | 60 | 8 | 8
